Consider two compounds from US20110033376A1, “Treatment of Melanoma” (priority 2007, published 2011).

For series [1], the system named is G-361 melanoma cells. The experiment in a line: CellTiter-Blue cell viability assay. As to conditions: G-361, 24 hours incubation; for IC50: CellTiter-Blue. In kind it is cell-based, human. The protocol: (§1) 3 human melanoma cell lines (A375, G-361, WM266-4) were maintained in RPMI 1640 culture medium (Sigma, UK) containing 10% (v/v) heat inactivated foetal bovine serum (Sigma, UK) and 2 mM […] at 37° C. in 5% humidified CO2. Cells were harvested, washed, re-suspended into growth medium and counted (Beckman-Coulter Vi-CELL XR). Cells were plated onto the middle 240 wells of 384 tissue culture plates at 1.6×10^5 to 2.4×10^5 cells/ml in 12.5 μl/well aliquots. 50 μl of growth media was aliquoted into the outer wells. 2 plates were prepared per cell line. Plates were incubated overnight at 37° C., in 5% humidified CO2.
(§2) Dexanabinol was prepared in growth medium at 2 times the final assay concentration at 125, 31.3, 7.81, 2.00, 0.49, 0.12, 0.031 and 0.008 μM (DMSO concentration was kept constant across the dilution range at 0.5%).
(§3) Cisplatin was used as a positive control. The final assays concentrations were 10, 2.5, 0.63, 0.156, 0.039, 0.010, 0.002 and 0.0006 μg/ml. […] 12.5 μl of growth media was added to the media control wells. The plates were incubated for 24 hours at 37° C., in 5% humidified CO2.
(§4) The cell viability assay was performed in parallel on the same plate for each line using CellTiter-Blue© (Promega) reagent. Briefly, 25 μl of CellTiter-Blue© (Promega) reagent was added to each well. The plates were shaken for 1 minute at 500 rpm and then incubated at 37° C., 5% CO2 for 4 hours.
(The colour change of resazurin is a common sign of viable cells or microbes.)

Series [2] relates to WM266-4 melanoma cells. The experiment in a line: CellTiter-Blue cell viability assay. The class given is cell-based, human. As to conditions: WM266-4, 24 hours incubation; for IC50: CellTiter-Blue. The protocol: as §1, §2, §3, §4
The subject of series [3] is A375 melanoma cells. Description: CellTiter-Blue cell viability assay. The class given is cell-based, human. As to conditions: A375, 24 hours incubation; for IC50: CellTiter-Blue. Here is the method:
as §1, §2, §3, §4

Series [4] relates to G-361 melanoma cells. The experiment in a line: Apo-ONE Homogeneous Caspase-3/7 assay (induction of apoptosis). In kind it is cell-based, human. The settings on record: G-361, 24 hours incubation. The protocol:
as §1, §2, §3
(§5) Caspase 3/7 levels were assessed by Apo-ONE© Homogeneous Caspase-3/7 assay kit. Fluorescence was measured using a FlexStation© II^384 plate reader at 1, 2, 3 and 4 hours after addition of the caspase substrate. The 4 hour readings were used for analysis.

Series [5] deals with WM266-4 melanoma cells. The series is described as above. In kind it is cell-based, human. As to conditions: WM266-4, 24 hours incubation; for EC50: caspase 3/7. The protocol:
as §1, §2, §3, §5

Series [6] has as its system A375 melanoma cells. The series is described as above. The class given is cell-based, human. The settings on record: A375, 24 hours incubation. The protocol: as §1, §2, §3, §5
A further series deals with UACC62 melanoma cells. The experiment in a line: Sulforhodamine B (SRB) growth inhibition assay. The class given is cell-based, human. As to conditions: UACC62, 5-day exposure. The protocol:
(§6) The ability of dexanabinol to inhibit melanoma cell growth was also studied in 3 melanoma cell lines (A375, UACC62, Malme-3M) using the Sulforhodamine B (SRB) assay.
(§7) Sterile solutions of the final concentrations of dexanabinol were prepared (0.001 μM to 100 μM in 0.5% DMSO).
(§8) The cells were incubated with drug concentrations in 0.5% DMSO (100 μl total volume per well) at 37° C. in 5% CO2 for 5 days. Control wells contained cells plus 0.5% DMSO plus medium.
(§9) The SRB growth inhibition assay was conducted over 24 and 5 day exposure periods. Following exposure, the cells were fixed, stained with SRB and read on a SpectorMax® 250 microplate spectrophotometer system plate reader.

For series [7], the system named is A375 melanoma cells. Description: Sulforhodamine B (SRB) growth inhibition assay. The class given is cell-based, human. Here is the method:
as §6, §7, §8, §9

Series [8] has as its system A375 human tumour xenograft. The experiment in a line: Single-dose efficacy study, human melanoma cell xenograft growth. The settings on record: single dose 100 mg/kg i.v., CD1 nude mice bearing A375 xenograft. The class given is in vivo. The protocol:
(§10) Having established that dexanabinol inhibited melanoma cell proliferation in vitro, we then sought to establish whether the compound was active in vivo. A preliminary pharmacokinetic (PK) and maximum tolerated dose (MTD) study was carried out to determine whether therapeutically effective dose levels of dexanabinol could be achieved in CD1 A375 tumour-bearing mice. […] On the basis of this, a single-dose efficacy study was undertaken. Dexanabinol was diluted in a vehicle of 10% Cremophor/Ethanol (1:1 v/v) in saline. Control mice received vehicle alone.
10 mice received 100 mg/kg i.v. dexanabinol. 10 mice received Vehicle (10 ml/kg) Mice were implanted with 1×10^7 A375 human melanoma cells, in 50 μl of medium, on the flank. Once tumours were palpable (approx 5 mm×5 mm) 20 mice were treated with either dexanabinol or vehicle (as outlined above). […] Tumour size was measured 3 times a week after treatment. The treatment lasted 4 weeks
For orientation: Xenograft models place foreign cells or tissue in a host animal.

Series [9] is described as follows: Preliminary pharmacokinetic (PK) and maximum tolerated dose (MTD) study. In kind it is in vivo, CD1 A375 tumour-bearing mice. As to conditions: CD1 mice. The protocol:
as §10

Series [10] deals with all tested human melanoma cell lines. Description: In vitro cell proliferation assays, summary over all tested lines. In kind it is cell-based. The protocol: as §4, §6, §9
Series [11] deals with A375 melanoma cells. The experiment in a line: Clonogenic assay, time-course effect on cell proliferation. In kind it is cell-based, human. As to conditions: A375, 1 hour vs 24 hours exposure. Here is the method:
The time-course effect of dexanabinol on cell proliferation in one melanoma cell line, A375, was examined using the clonogenic assay method.
A375 cells were harvested from the growing cell culture and counted. Cells were diluted to 1.0×10^5/ml and seeded 2 ml/well to 6 well plates.
The cells were incubated overnight at 37° C. in humidified incubator 95% air+5% CO2.
The cells were treated with dexanabinol at 4 doses up to 20 μM at 3 exposure periods (1 hour, 6 hours and 24 hours).
After each exposure period, the cells were harvested from the wells by washing twice with PBS then adding 0.2 ml of single strength trypsin to each well and incubating at 37° C. until the cells detached. Cell suspensions were counted at 1/10 dilution and then diluted to 1/10, 1/100, 1/1000.
10 cm dishes (containing 7 ml fresh medium) were seeded with 3 different cell densities for dexanabinol treatment and control treatment. When colonies of suitable size formed in the control dishes, dishes were fixed, stained and counted.
Percentage survival in the dexanabinol treated A375 cells was calculated using the following equation: […]

For series [12], the system named is 3 melanoma cell lines (A375, G-361, WM266-4). Description: CellTiter-Blue cytotoxic response, summary over 3 melanoma cell lines. The class given is cell-based. The settings on record: Homo sapiens, 24 h, read-out: IC50 of cytotoxic response. Here is the method:
Cells were harvested, washed, re-suspended into growth medium and counted (Beckman-Coulter Vi-CELL XR). […] 50 μl of growth media was aliquoted into the outer wells. 2 plates were prepared per cell line. Plates were incubated overnight at 37° C., in 5% humidified CO2.
The final assays concentrations were 10, 2.5, 0.63, 0.156, 0.039, 0.010, 0.002 and 0.0006 μg/ml. […] 12.5 μl of growth media was added to the media control wells. The plates were incubated for 24 hours at 37° C., in 5% humidified CO2.
The plates were shaken for 1 minute at 500 rpm and then incubated at 37° C., 5% CO2 for 4 hours.

A further series has as its system Malme-3M melanoma cells. Description: Sulforhodamine B (SRB) growth inhibition assay. The settings on record: Homo sapiens, 120 h, 5-day exposure. The class given is cell-based. The protocol:
as §6, §7, §8, §9

Series [13] concerns human melanoma cell lines (A375, G-361, WM266-4). Description: Caspase 3/7 apoptosis induction, summary over melanoma cell lines. The class given is cell-based. Here is the method:
as §1, §2, §3, §5

In the case of `N.N.[Cl][Pt][Cl]` [Cisplatin], the “Rank of decrease in proliferation (viability)” value with G-361 melanoma cells [1] was “** (moderate apoptosis induction and decrease in proliferation (35-70%))”; in the series on WM266-4 melanoma cells [2], “* (weak apoptosis induction and decrease in proliferation (<35%))”; with A375 melanoma cells [3] it was “** (moderate apoptosis induction and decrease in proliferation (35-70%))”. For the same compound, the results for the IC50 with G-361 melanoma cells [1], in the series with WM266-4 melanoma cells [2] and in the series with A375 melanoma cells [3] were 18 µM, 62 µM and 21.8 µM, respectively. Besides, the “Rank of apoptosis induction” value in the series with G-361 melanoma cells [4] was “** (moderate apoptosis induction and decrease in proliferation (35-70%))”; in the series on WM266-4 melanoma cells [5], “*** (good apoptosis induction and decrease in proliferation (>70%))”; with A375 melanoma cells [6], “** (moderate apoptosis induction and decrease in proliferation (35-70%))”. The concentration giving a half-maximal response (EC50) (as a rule, the concentration giving half of the maximal effect) is 33.3 to 100 µM in the series with G-361 melanoma cells [4] (caspase 3/7), 33.3 to 100 µM in the series with WM266-4 melanoma cells [5] and 5.67 µM with A375 melanoma cells [6] (caspase 3/7).

Regarding `CCCCCCC(C)(C)c1cc(O)c2c(c1)OC(C)(C)[C@H]1CC=C(CO)C[C@H]21` [Dexanabinol, 1,1 dimethyl heptyl-(3S,4S)-7-hydroxy-Δ^6-tetrahydrocannabinol], the GI50 (as a rule, the concentration at which growth is held to half of that of the control) in the series with UACC62 melanoma cells (Homo sapiens, UACC-62, 120 h) came out at 18.5 µM; with UACC62 melanoma cells it was 18.1 µM; in the series with A375 melanoma cells [7] (A375, 5-day exposure), 14.4 µM; with A375 melanoma cells [7] (Homo sapiens, A-375, 24 h, A375, 24-hour exposure), 14.3 µM; in the series on A375 melanoma cells [7] (Homo sapiens, A-375, 120 h, A375, 5-day exposure), 16.2 µM; in the series on Malme-3M melanoma cells, 13.3 µM. The “Effect on tumour xenograft growth” value in series [8] was “growth delaying effect”. This compound returned a Plasma concentration in [9] (at the MTD, 100 mg/kg i.v. single dose) of 10 µM. Further, the MTD (commonly the largest dose that counted as tolerated) in series [9] (mouse, in vivo, iv, i.v. single dose) turned out to be 100 mg/kg. In series [10] (all tested human melanoma cell lines), the “Mean concentration at which profoundly cytotoxic” value was around 14. Moreover, in series [10] (in vitro), the “Drug concentrations at which in vitro anti-tumour effects were observed” value lay within 10 to 20 µM. Moreover, in the series with A375 melanoma cells [11], the “Time dependence of cell killing” value was “time-independent”. The “Rank of decrease in proliferation (viability)” value in the series with G-361 melanoma cells [1] was “*** (good apoptosis induction and decrease in proliferation (>70%))”; in the series on WM266-4 melanoma cells [2] it was “** (moderate apoptosis induction and decrease in proliferation (35-70%))”; in the series with A375 melanoma cells [3], “** (moderate apoptosis induction and decrease in proliferation (35-70%))”. For the same compound, the IC50 (commonly the concentration that gives 50% inhibition) in the series with G-361 melanoma cells [1] (Homo sapiens) was 11 µM; in the series on WM266-4 melanoma cells [2] (Homo sapiens, WM 266-4) it was 20.9 µM; in the series with A375 melanoma cells [3] (Homo sapiens, A-375) it was 19.2 µM; in series [12], 10 to 21 µM. In addition, the “Rank of apoptosis induction” value in the series on G-361 melanoma cells [4] was “ND* (weak apoptosis induction and decrease in proliferation (<35%))”; in the series on WM266-4 melanoma cells [5], “*** (good apoptosis induction and decrease in proliferation (>70%))”; in the series on A375 melanoma cells [6] it was “ND*** (good apoptosis induction and decrease in proliferation (>70%))”. Further, a half-maximal effect with WM266-4 melanoma cells [5] (Homo sapiens, WM 266-4) (EC50) was put at 13 µM. Moreover, the “Concentration of peak response in apoptosis” value in series [13] (24 hours incubation, response dropped at the highest concentration) was determined as 2.5 µM. Further, the “Mode of cell death” value in series [13] (caspase 3/7) was “induced apoptotic cell death in a caspase 3/7 dependent manner”.
